Assays:
[1] = test system: Staphylococcus aureus (SAU); test: paper diffusion method drug sensitivity test; assay type: cell-based; conditions: 30 μg/tablet paper disc (6.35 mm), LB plate, 37° C., 24 h
Method: (§1) The antimicrobial efficacy was determined by a paper diffusion method drug sensitivity test.
(§2) Experimental strains: Staphylococcus aureus (SAU), multi-resistant Staphylococcus aureus 18-206. The experimental strain was identified by Huashan Hospital Affiliated to Fudan University (Institute of Antibiotic of Fudan University).
(§3) Drug sensitive paper: The drug sensitive paper is a special drug sensitive paper with a diameter of 6.35 mm and a water absorption of 0.02 mL. The control drug was cefazolin (30 μg/tablet); the test drugs were cassic acid (30 μg/tablet), cinnamyl alcohol (30 μg/tablet) and cinnamyl alcohol cassic acid ester (30 μg/tablet).
(§4) Reagents: LB agar medium, LA broth medium, 0.5% DMSO solution.
(§5) The experimental strains were inoculated in non-selective medium and placed in air at 37° C. for 24 h. Pick a single colony that grows well and inoculate it into broth medium, incubate at 35° C.±2° C. for 6 hours, and use LA broth medium to calibrate the concentration of the bacterial solution to 0.5 Mie turbidimetric tube (1.5×10^8 CFU/mL). A bacterial suspension is obtained.
(§6) Weigh the LB dry powder, sterilize at 103.4 Kpa, 121.3° C. high-pressure steam for 15 min, and then put it in a 40° C.-50° C. water bath. Place a sterile empty plate (inner diameter 9 cm) on the surface of the ultra-clean table water table, shake and shake LB, and then pour the plate. The thickness of each plate is 3 mm to 4 mm. After the plate is cooled at room temperature, store it in the refrigerator at 2° C.-8° C. Use a sterile cotton swab to dip the bacterial solution, and evenly coat the surface of the LB plate 3 times. After inoculation of the bacterial suspension, the LB plate was dried at room temperature for 3 min to 5 min. Use sterile forceps to closely attach the antibacterial drug paper to the dish. Put the dish upside down and place it in a 37° C. incubator for 24 h. Observe the result and measure the diameter. Taking 0.5% DMSO solution as a negative control, the antibacterial activity is expressed by the diameter of the inhibition zone. The inhibition zone ≥17 mm, sensitive; the inhibition zone is 15 mm-16 mm, intermediary; the inhibition zone ≤14 mm, drug resistance.

[2] = test system: multi-resistant Staphylococcus aureus 18-206; test: paper diffusion method drug sensitivity test; assay type: cell-based; conditions: for Zone of inhibition: Multi-resistant Staphylococcus aureus 18-206, 30 μg/tablet paper disc (6.35 mm), LB plate, 37° C., 24 h; for inhibitory effect on drug-resistant bacteria (in words): multi-resistant Staphylococcus aureus 18-206, summary of Table 1
Method: as §1, §2, §3, §4, §5, §6

Row | Compound | Zone of inhibition [1] [mm] | Zone of inhibition [2] [mm] | inhibitory effect on drug-resistant bacteria (in words) [2]
1 | O=C(O)c1cc(O)c2c(c1)C(=O)c1cccc(O)c1C2=O [Cassic acid] | 7 | 7 | –
2 | Cc1nnc(SCC2=C(C(=O)O)N3C(=O)[C@@H](NC(=O)Cn4cnnn4)[C@H]3SC2)s1 [Cefazolin] | 34 | 22 | –
3 | O=C(OC/C=C/c1ccccc1)c1cc(O)c2c(c1)C(=O)c1cccc(O)c1C2=O [Cinnamyl alcohol cassic acid ester, Cinnamyl 4,5-dihydroxy-9,10-dioxo-9,10-dihydroanthracene-2-carboxylate] | 13 | 15 | strong suppression effect
4 | OCC=Cc1ccccc1 [Cinnamyl alcohol] | 17 | 0 | no inhibitory effect
